For series [1], the system named is rats. Conditions: rat, in vivo.
A short description of series [2]: in vivo. Conditions: rat.

A value given as a limit tells only on which side of the number the result lay.

One may read the LD50 as the dose at which mortality reaches 50%. Higher therefore signals a less toxic substance. With `FC(F)(F)OC(F)(F)C(F)(F)OC(F)(F)C(F)(F)OC(F)(F)C(F)(F)OC(F)(F)C(F)(F)OC(F)(F)C(F)(F)OC(F)(F)C(F)(F)OC(F)(F)C(F)(F)OC(F)(F)F` [PFHG, 1,1,1,3,3,4,4,6,6,7,7,9,9,10,10,12,12,13,13,15,15,16,16,18, 18,19,19,21,21,22,22,24,24,24-tetratriacontafluoro-2,5,8,11, 14,17,20,23-octaoxatetetracosane], in series [1], the “toxicity (in words)” value is reported as “essentially nontoxic”. This molecule returned an LD50 in series [2] of more than 10000 mg/kg.

The record behind these values is US4871109A (priority 1988, dated 1989).
